Reference: patent publication US8053599B2, “Drug containing (2R)-2-propyloctanoic acid as the active ingredient” (Ono Pharmaceutical Co., Ltd., priority 2003, dated 2011)

Experiments:
[1] = solubility and behaviour in water; format: physicochemical
Excerpt: The present inventors have attempted to prepare a medicament comprising (2R)-2-propyloctanoic acid or a salt thereof in a high concentration, which is useful for the treatment of neurodegenerative diseases including cerebral infarction, and which can be formulated to an injection which can be conveniently administered to a patient, if necessary, by means of the dissolution or dilution operation. […] The inventors have conducted studies to solve these problems and have found as a result that (2R)-2-propyloctanoic acid can be dissolved in water in a high concentration by mixing it with a strong alkali such as sodium hydroxide. […] Moreover, the solution in a high concentration was difficult to be stored for a long period of time because of the appearance of insoluble allotrio within the solution under long-term storage in conventional glass containers. Thus, there are problems in using a drug which is sensitive to a change in the drug concentration or in the pH of the solution, leading to a change such as clouding. That is, there is in fact the risk of clouding of the drug, upon preparing an injection which can be administered to a patient, by direct manipulation of a person involved in medical services, for combined use with other agents, or during the action of intravascular administration to a patient. […]

dog = assay: single intravenous administration toxicity using a dog; format: in vivo; details: dose of 100 mg/kg
[2] = confirmation test of micelle formation (fat staining with Sudan III, absorbance of supernatant); format: physicochemical
Excerpt: The fat staining method includes, for example, a method of mixing a solution of a fat-soluble dye (for example, Sudan III, piacyanol chloride, Rhodamine 6G, etc.) with the solution under test, followed by centrifugation after a certain period of time, and measuring the absorbance of the supernatant which is inherent to the fat-soluble dye used. If the absorbance of the supernatant can be measured according to this test method, it implies that the fat-soluble dye is present within micelles, that is, micelles have been formed, and thus it is possible to determine that a micelle water dispersion liquid has been formed. It is also possible to define the critical concentration of micelle formation, that is, a critical micelle concentration (CMC), by means of such a test.
The critical micelle concentration cannot be exactly determined since it depends on the substance forming micelles, the type of co-existing ions and the concentration thereof, the ionic strength, and even on temperature. […]
Into a spitz made of glass, the Sudan III solution prepared in the above (2) (400 μL) was added, and ethanol was evaporated Each of the (2R)-2-propyloctanoic acid solutions of various concentrations prepared in the above (1) was added thereto, and the mixture was subjected to sonication and stirring. […] The absorbance of the supernatant was measured at a wavelength of 502 nm.

CCCCCC[C@@H](CCC)C(=O)[O-].[Na+] [(2R)-2-propyloctanoic acid-sodium salt]
pH and clouding of solution in water ([1]; dissolved in water): has a high pH and is susceptible to clouding under slight fluctuations of the pH

CCCCCC[C@@H](CCC)C(=O)O [(2R)-2-propyloctanoic acid]
solubility in water ([1]; water): insoluble and immiscible in water | death after single intravenous administration (dog): did not result in death | critical micelle concentration ([2]; aqueous medicament comprising about 1 to about 5 equivalents of basic sodium ion based on 1 equivalent of (2R)-2-propyloctanoic acid, room temperature): 20 to 25 mg/mL | concentration at which micelle formation occurred ([2]; aqueous solution with trisodium phosphate dodecahydrate, Sudan III, left at room temperature for 1 day, absorbance at 502 nm): about 20 mg/mL
